In patent US10294202B2, “Pyrrolidinones as herbicides” (FMC Corporation, priority 2013, dated 2019):

Experiments:
Assay in all cases: Test D pre-/postemergence herbicide test
[1] = tested on: blackgrass; assay type: in vivo, Alopecurus myosuroides; conditions: for Plant response rating: Blackgrass, scale 0 to 100; for Plant response rating, Blackgrass: scale 0 to 100 (0 no effect, 100 complete control)
Text: (§1) Seeds of plant species selected from bluegrass (annual bluegrass, Poa annua), blackgrass (Alopecurus myosuroides), canarygrass (littleseed canarygrass, Phalaris minor), chickweed (common chickweed, Stellaria media), galium (catchweed bedstraw, Galium aparine), bromegrass, downy (downy bromegrass, Bromus tectorum), field poppy (Papaver rhoeas), field violet (Viola arvensis), foxtail, green (green foxtail, Setaria viridis), deadnettle (henbit deadnettle, Lamium amplexicaule), ryegrass, Italian (Italian ryegrass, Lolium multiflorum), kochia (Kochia scoparia), lambsquarters (Chenopodium album), oilseed rape (Brassica napus), pigweed (Amaranthus retroflexus), chamomile (scentless chamomile, Matricaria inodora), Russian thistle (Salsola kali), speedwell (bird's-eye speedwell, Veronica persica), barley, spring (spring barley, Hordeum vulgare), wheat, spring (spring wheat, Triticum aestivum), buckwheat, wild (wild buckwheat, Polygonum convolvulus), mustard, wild (wild mustard, Sinapis arvensis), oat, wild (wild oat, Avena fatua), radish, wild (wild radish, Raphanus raphanistrum), […]), barley, winter (winter barley, Hordeum vulgare), and wheat, winter (winter wheat, Triticum aestivum) were planted into a silt loam soil and treated preemergence with test chemicals formulated in a non-phytotoxic solvent mixture which included a surfactant. At the same time, these species were planted in pots containing Redi-Earth® planting medium (Scotts Company, 14111 Scottslawn Road, Marysville, Ohio 43041) comprising spaghnum peat moss, vermiculite, wetting agent and starter nutrients and treated with postemergence applications of the test chemicals formulated in the same manner. Plants ranged in height from 2 to 18 cm (1- to 4-leaf stage). Treated plants and controls were maintained in a controlled growth environment for 7 to 21 days after which time all species were compared to controls and visually evaluated. Plant response ratings, summarized in Table D, are based on a scale of 0 to 100 where 0 is no effect and 100 is complete control. A dash (-) response means no test result.

[2] = tested on: foxtail, green; assay type: in vivo, Setaria viridis; conditions: for Plant response rating: Foxtail, Green, scale 0 to 100; for Plant response rating, Foxtail, Green: scale 0 to 100 (0 no effect, 100 complete control)
Text: as §1

[3] = tested on: kochia; assay type: in vivo, Kochia scoparia; conditions: for Plant response rating: Kochia, scale 0 to 100; for Plant response rating, Kochia: scale 0 to 100 (0 no effect, 100 complete control)
Text: as §1

[4] = tested on: mustard, wild; assay type: in vivo, Sinapis arvensis; conditions: for Plant response rating: Mustard, Wild, scale 0 to 100; for Plant response rating, Mustard, Wild: scale 0 to 100 (0 no effect, 100 complete control)
Text: as §1

[5] = tested on: galium; assay type: in vivo, Galium aparine; conditions: for Plant response rating: Galium, scale 0 to 100; for Plant response rating, Galium: scale 0 to 100 (0 no effect, 100 complete control)
Text: as §1

[6] = tested on: deadnettle; assay type: in vivo, Lamium amplexicaule; conditions: for Plant response rating: Deadnettle, scale 0 to 100; for Plant response rating, Deadnettle: scale 0 to 100 (0 no effect, 100 complete control)
Text: as §1

[7] = tested on: bluegrass; assay type: in vivo, Poa annua; conditions: for Plant response rating: Bluegrass, scale 0 to 100; for Plant response rating, Bluegrass: scale 0 to 100 (0 no effect, 100 complete control)
Text: as §1

[8] = tested on: bromegrass, downy; assay type: in vivo, Bromus tectorum; conditions: for Plant response rating: Bromegrass, Downy, scale 0 to 100; for Plant response rating, Bromegrass, Downy: scale 0 to 100 (0 no effect, 100 complete control)
Text: as §1

## O=C1NCC(c2ccc(F)c(F)c2)C1C(=O)Nc1cccc(F)c1 (racemic) [Compound 12]
[1]; Postemergence, 16 g ai/ha
  Plant response rating: 5
[1]; Postemergence, 31 g ai/ha
  Plant response rating: 10
[1]; Postemergence, 62 g ai/ha
  Plant response rating: 10
[1]; Postemergence, 125 g ai/ha
  Plant response rating: 15
[1]; Postemergence, 250 g ai/ha
  Plant response rating: 20
[1]; Preemergence, 31 g ai/ha
  Plant response rating, Blackgrass: 0
[1]; Preemergence, 62 g ai/ha
  Plant response rating, Blackgrass: 0
[1]; Preemergence, 16 g ai/ha
  Plant response rating, Blackgrass: 0
[1]; Preemergence, 125 g ai/ha
  Plant response rating: 0
[1]; Preemergence, 250 g ai/ha
  Plant response rating: 0
[2]; Postemergence, 16 g ai/ha
  Plant response rating: 0
[2]; Postemergence, 31 g ai/ha
  Plant response rating: 0
[2]; Postemergence, 62 g ai/ha
  Plant response rating: 10
[2]; Postemergence, 125 g ai/ha
  Plant response rating: 20
[2]; Postemergence, 250 g ai/ha
  Plant response rating: 25
[2]; Preemergence, 31 g ai/ha
  Plant response rating, Foxtail, Green: 0
[2]; Preemergence, 62 g ai/ha
  Plant response rating, Foxtail, Green: 0
[2]; Preemergence, 16 g ai/ha
  Plant response rating, Foxtail, Green: 0
[2]; Preemergence, 125 g ai/ha
  Plant response rating: 0
[2]; Preemergence, 250 g ai/ha
  Plant response rating: 0
[3]; Postemergence, 16 g ai/ha
  Plant response rating: 5
[3]; Postemergence, 31 g ai/ha
  Plant response rating: 5
[3]; Postemergence, 62 g ai/ha
  Plant response rating: 20
[3]; Postemergence, 125 g ai/ha
  Plant response rating: 20
[3]; Postemergence, 250 g ai/ha
  Plant response rating: 35
[3]; Preemergence, 31 g ai/ha
  Plant response rating, Kochia: 0
[3]; Preemergence, 62 g ai/ha
  Plant response rating, Kochia: 0
[3]; Preemergence, 16 g ai/ha
  Plant response rating, Kochia: 0
[3]; Preemergence, 125 g ai/ha
  Plant response rating: 0
[3]; Preemergence, 250 g ai/ha
  Plant response rating: 0
[4]; Postemergence, 16 g ai/ha
  Plant response rating: 0
[4]; Postemergence, 31 g ai/ha
  Plant response rating: 10
[4]; Postemergence, 62 g ai/ha
  Plant response rating: 40
[4]; Postemergence, 125 g ai/ha
  Plant response rating: 100
[4]; Preemergence, 31 g ai/ha
  Plant response rating, Mustard, Wild: 0
[4]; Preemergence, 62 g ai/ha
  Plant response rating, Mustard, Wild: 0
[4]; Preemergence, 16 g ai/ha
  Plant response rating, Mustard, Wild: 0
[4]; Preemergence, 125 g ai/ha
  Plant response rating: 20
[4]; Preemergence, 250 g ai/ha
  Plant response rating: 70
[5]; Postemergence, 16 g ai/ha
  Plant response rating: 0
[5]; Postemergence, 31 g ai/ha
  Plant response rating: 0
[5]; Postemergence, 62 g ai/ha
  Plant response rating: 15
[5]; Postemergence, 125 g ai/ha
  Plant response rating: 20
[5]; Postemergence, 250 g ai/ha
  Plant response rating: 25
[5]; Preemergence, 31 g ai/ha
  Plant response rating, Galium: 0
[5]; Preemergence, 62 g ai/ha
  Plant response rating, Galium: 0
[5]; Preemergence, 16 g ai/ha
  Plant response rating, Galium: 0
[5]; Preemergence, 125 g ai/ha
  Plant response rating: 0
[5]; Preemergence, 250 g ai/ha
  Plant response rating: 10
[6]; Postemergence, 16 g ai/ha
  Plant response rating: 0
[6]; Postemergence, 31 g ai/ha
  Plant response rating: 0
[6]; Postemergence, 62 g ai/ha
  Plant response rating: 10
[6]; Postemergence, 125 g ai/ha
  Plant response rating: 15
[6]; Postemergence, 250 g ai/ha
  Plant response rating: 20
[6]; Preemergence, 31 g ai/ha
  Plant response rating, Deadnettle: 0
[6]; Preemergence, 62 g ai/ha
  Plant response rating, Deadnettle: 0
[6]; Preemergence, 16 g ai/ha
  Plant response rating, Deadnettle: 0
[6]; Preemergence, 125 g ai/ha
  Plant response rating: 0
[6]; Preemergence, 250 g ai/ha
  Plant response rating: 50
[7]; Postemergence, 16 g ai/ha
  Plant response rating: 0
[7]; Postemergence, 31 g ai/ha
  Plant response rating: 0
[7]; Postemergence, 62 g ai/ha
  Plant response rating: 0
[7]; Postemergence, 125 g ai/ha
  Plant response rating: 10
[7]; Postemergence, 250 g ai/ha
  Plant response rating: 10
[7]; Preemergence, 31 g ai/ha
  Plant response rating, Bluegrass: 0
[7]; Preemergence, 62 g ai/ha
  Plant response rating, Bluegrass: 0
[7]; Preemergence, 16 g ai/ha
  Plant response rating, Bluegrass: 0
[7]; Preemergence, 125 g ai/ha
  Plant response rating: 20
[7]; Preemergence, 250 g ai/ha
  Plant response rating: 40
[8]; Postemergence, 16 g ai/ha
  Plant response rating: 0
[8]; Postemergence, 31 g ai/ha
  Plant response rating: 0
[8]; Postemergence, 62 g ai/ha
  Plant response rating: 0
[8]; Postemergence, 125 g ai/ha
  Plant response rating: 0
[8]; Postemergence, 250 g ai/ha
  Plant response rating: 5
[8]; Preemergence, 31 g ai/ha
  Plant response rating, Bromegrass, Downy: 0
[8]; Preemergence, 62 g ai/ha
  Plant response rating, Bromegrass, Downy: 0
[8]; Preemergence, 16 g ai/ha
  Plant response rating, Bromegrass, Downy: 0
[8]; Preemergence, 125 g ai/ha
  Plant response rating: 0
[8]; Preemergence, 250 g ai/ha
  Plant response rating: 10
